# Values of other authors, collected in patent US6797722B2 (Sigma-Tau Industrie Farmaceutiche Riunite S.p.A., priority 2002, dated 2004).
# Conditions: oral route
smiles,measurement,value
"CCc1ccccc1-c1n[nH]c(-c2cccc(OC)c2)n1 [ST1959, 3-(2-ethylphenyl)-5-(3-methoxyphenyl)-1H-1,2,4-triazole]",hepatic first-pass effect,rapid and extensive hepatic first-pass effect leading to the formation of inactive metabolites
